Data on 31 molecules can be found in patent publication US10065972B2, “Bicyclic or tricyclic heterocyclic compound” (MITSUBISHI TANABE PHARMA CORPORATION, priority 2014, dated 2018).

For orientation: pIC50 means the negative decadic logarithm of the IC50, by convention in mol/L.

pIC50: −log10 of the molar value.

Sequence of human recombinant KAT-II (Q8N5Z0 30-425): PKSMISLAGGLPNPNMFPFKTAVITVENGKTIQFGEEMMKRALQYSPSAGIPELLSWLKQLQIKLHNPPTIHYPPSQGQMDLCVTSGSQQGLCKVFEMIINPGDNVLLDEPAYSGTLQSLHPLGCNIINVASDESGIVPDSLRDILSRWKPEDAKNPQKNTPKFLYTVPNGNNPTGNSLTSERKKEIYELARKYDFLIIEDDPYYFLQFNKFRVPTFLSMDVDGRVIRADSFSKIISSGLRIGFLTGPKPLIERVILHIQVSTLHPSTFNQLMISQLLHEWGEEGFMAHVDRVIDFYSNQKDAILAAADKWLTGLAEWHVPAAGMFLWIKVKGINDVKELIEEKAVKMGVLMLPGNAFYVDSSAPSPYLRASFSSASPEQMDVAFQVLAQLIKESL

This test deals with human recombinant KAT-II (Homo sapiens (Human), UniProt Q8N5Z0). The test is described as follows: KAT-II inhibitory test. The format is biochemical. The following applies: 3.0 μmol/L kynurenine, 37° C., 1 hr, pH 8.0; kynurenic acid quantified by HPLC. An outline of the steps:
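Kynurenic acid formation was measured by HPLC fluorescence (354 nm excitation, 460 nm emission) against an external standard curve. The substrate was 3.0 μmol/L kynurenine with 10 μmol/L pyridoxal phosphate, at pH 8.0 Tris-acetate, 37 °C for 1 hr, using 2.0 ng/μL amylose-purified N-terminal His/MBP-tagged recombinant enzyme. Duplicate measurements were made per concentration.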
`O=C(NCc1ccccc1)[C@H]1CCCN1c1nc2c(=O)[nH]c(C3CC3)c(Cl)c2s1` [Example 623, (R)-N-benzyl-1-(7-chloro-6-cyclopropyl-4-oxo-4,5-dihydro[1,3]thiazolo[4,5-c]pyridin-2-yl)pyrrolidine-2-carboxamide]: the pIC50 was 7.66. The value for `O=C(NCc1ccccc1)[C@H]1CCCN1c1nc2c(=O)[nH]c(-c3ccccc3F)c(Cl)c2s1` [Example 624, (R)-N-benzyl-1-[7-chloro-6-(2-fluorophenyl)-4-oxo-4,5-dihydro[1,3]thiazolo[4,5-c]pyridin-2-yl]pyrrolidine-2-carboxamide] was 7.82; that for `CC(C)(F)c1[nH]c(=O)c2nc(N3CCC[C@@H]3C(=O)NCc3ccccc3)sc2c1Cl` [Example 626, (R)-N-benzyl-1-[7-chloro-6-(2-fluoropropan-2-yl)-4-oxo-4,5-dihydro[1,3]thiazolo[4,5-c]pyridin-2-yl]pyrrolidine-2-carboxamide] was 7.82. In the case of `CCOC1(c2cc3sc(N4CCC[C@@H]4C(=O)NCc4ccccc4)nc3c(=O)[nH]2)CC1` [Example 629, (R)-N-benzyl-1-[6-(1-ethoxycyclopropyl)-4-oxo-4,5-dihydro[1,3]thiazolo[4,5-c]pyridin-2-yl]pyrrolidine-2-carboxamide] it was 7.33; in that of `Cn1c(C(F)(F)F)cc2sc(N3CCC[C@@H]3C(=O)NCc3ccccc3)nc2c1=O` [Example 631, (R)-N-benzyl-1-(5-methyl-4-oxo-6-trifluoromethyl-4,5-dihydro[1,3]thiazolo[4,5-c]pyridin-2-yl)pyrrolidine-2-carboxamide], 7.26; in that of `CCCc1cc(=O)n2nc(N3CCCC[C@@H]3C(=O)NCc3ccccc3)sc2n1` [Example 635, (R)-N-benzyl-1-(5-oxo-7-propyl-5H-[1,3,4]thiadiazolo[3,2-a]pyrimidin-2-yl) piperidine-2-carboxamide], 6.01.

Turning to `Cc1cc(=O)n2nc(N3CCC[C@@H]3C(=O)NC(C)(C)c3ccccc3)sc2n1` [Example 636, (R)-1-(7-methyl-5-oxo-5H-[1,3,4]thiadiazolo[3,2-a]pyrimidin-2-yl)-N-(1-methyl-1-phenylethyl)pyrrolidine-2-carboxamide], the pIC50 is 5.82. The value for `O=C(NCc1ccccc1)[C@H]1CCCN1c1nn2c(=O)cc(-c3ccccc3)nc2s1` [Example 638, (R)-N-benzyl-1-(5-oxo-7-phenyl-5H-[1,3,4]thiadiazolo[3,2-a]pyrimidin-2-yl)pyrrolidine-2-carboxamide] was 7.54; that for `O=C(NCc1ccccc1)[C@H]1CCCN1c1nn2c(=O)c3c(nc2s1)CCCC3` [Example 639, (R)-N-benzyl-1-(5-oxo-6,7,8,9-tetrahydro-5H-[1,3,4]thiadiazolo[2,3-b]quinazolin-2-yl)pyrrolidine-2-carboxamide] was 7.31; that for `O=C(NCc1ccccc1)[C@H]1CCCN1c1nn2c(=O)cc(C(F)(F)F)nc2s1` [Example 642, (R)-N-benzyl-1-(5-oxo-7-trifluoromethyl-5H-[1,3,4]thiadiazolo[3,2-a]pyrimidin-2-yl)pyrrolidine-2-carboxamide] was 7.11. The value for `CCc1cc(=O)n2nc(N3CCOC[C@@H]3C(=O)NCc3ccccc3)sc2n1` [Example 645, (R)-N-benzyl-4-(7-ethyl-5-oxo-5H-[1,3,4]thiadiazolo[3,2-a]pyrimidin-2-yl)morpholine-3-carboxamide] was 5.80; that for `Cc1nc2sc(N3CCC[C@@H]3C(=O)NCc3ccccc3)nn2c(=O)c1C(C)C` [Example 647, (R)-N-benzyl-1-[7-methyl-5-oxo-6-(propan-2-yl)-5H-[1,3,4]thiadiazolo[3,2-a]pyrimidin-2-yl]pyrrolidine-2-carboxamide] was 7.24; that for `Cc1nc2sc(N3CCC[C@@H]3C(=O)NCc3ccccc3)nn2c(=O)c1-c1ccccc1` [Example 648, (R)-N-benzyl-1-(7-methyl-5-oxo-6-phenyl-5H-[1,3,4]thiadiazolo[3,2-a]pyrimidin-2-yl)pyrrolidine-2-carboxamide] was 7.34. Take `CCc1nc2sc(N3CC(F)(F)C[C@@H]3C(=O)NCc3ccccc3)nn2c(=O)c1F` [Example 650, (R)-N-benzyl-1-(7-ethyl-6-fluoro-5-oxo-5H-[1,3,4]thiadiazolo[3,2-a]pyrimidin-2-yl)-4,4-difluoropyrrolidine-2-carboxamide]: the pIC50 is 5.66. The value for `CC(C)c1cc(=O)n2nc(N3CCC[C@@H]3C(=O)NCc3ccccn3)sc2n1` [Example 653, (R)-1-[5-oxo-7-(propan-2-yl)-5H-[1,3,4]thiadiazolo[3,2-a]pyrimidin-2-yl]-N-[(pyridin-2-yl)methyl]pyrrolidine-2-carboxamide] was 6.72. The value for `O=C(NC1(c2ccccc2)CC1)[C@H]1CCCN1c1nn2c(=O)c3ccccc3nc2s1` [Example 655, (R)-1-(5-oxo-5H-[1,3,4]thiadiazolo[2,3-b]quinazolin-2-yl)-N-(1-phenylcyclopropyl)pyrrolidine-2-carboxamide] was 7.54. Turning to `Cc1cc2c(=O)n3nc(N4CCC[C@@H]4C(=O)NCc4ccccc4)sc3nc2s1` [Example 656, (R)-N-benzyl-1-(6-methyl-8-oxo-8H-[1,3,4]thiadiazolo[3,2-a]thieno[2,3-d]pyrimidin-2-yl)pyrrolidine-2-carboxamide], the pIC50 is 7.36. In the case of `CCc1nc2sc(N3CCC[C@@H]3C(=O)NCc3cc(C)ccn3)nn2c(=O)c1F` [Example 664, (R)-1-(7-ethyl-6-fluoro-5-oxo-5H-[1,3,4]thiadiazolo[3,2-a]pyrimidin-2-yl)-N-[(4-methylpyridin-2-yl)methyl]pyrrolidine-2-carboxamide] it was 6.25; in that of `CCc1nc2sc(N3CCC[C@@H]3C(=O)NCc3ccccc3Cl)nn2c(=O)c1F` [Example 678, (R)-N-(2-chlorobenzyl)-1-(7-ethyl-6-fluoro-5-oxo-5H-[1,3,4]thiadiazolo[3,2-a]pyrimidin-2-yl)pyrrolidine-2-carboxamide], 7.72.

`CCc1nc2sc(N3CCC[C@@H]3C(=O)NCc3ncccn3)nn2c(=O)c1F` [Example 684, (R)-1-(7-ethyl-6-fluoro-5-oxo-5H-[1,3,4]thiadiazolo[3,2-a]pyrimidin-2-yl)-N-[(pyrimidin-2-yl)methyl]pyrrolidine-2-carboxamide]: the pIC50 is 4.96. Consider `CCc1nc2sc(N3CCC[C@@H]3C(=O)NCc3cnc(C)cn3)nn2c(=O)c1F` [Example 685, (R)-1-(7-ethyl-6-fluoro-5-oxo-5H-[1,3,4]thiadiazolo[3,2-a]pyrimidin-2-yl)-N-[(5-methylpyrazin-2-yl)methyl]pyrrolidine-2-carboxamide], for which the pIC50 was 5.66.

As to `CCc1nc2sc(N3CCC[C@@H]3C(=O)NCc3nnc4ccccn34)nn2c(=O)c1F` [Example 686, (R)-1-(7-ethyl-6-fluoro-5-oxo-5H-[1,3,4]thiadiazolo[3,2-a]pyrimidin-2-yl)-N-[([1,2,4]triazolo[4,3-a]pyridin-3-yl)methyl]pyrrolidine-2-carboxamide], the pIC50 is 4.49.

On to `CCc1nc2sc(N3CCC[C@@H]3C(=O)NCc3ccc(Cl)cc3Cl)nn2c(=O)c1F` [Example 688, (R)-N-(2,4-dichlorobenzyl)-1-(7-ethyl-6-fluoro-5-oxo-5H-[1,3,4]thiadiazolo[3,2-a]pyrimidin-2-yl)pyrrolidine-2-carboxamide], for which the pIC50 is 7.54. The value for `Cc1nc2sc(N3CCC[C@@H]3C(=O)NCc3ccccc3)nn2c(=O)c1C1=CCOCC1` [Example 698, (R)-N-benzyl-1-[6-(3,6-dihydro-2H-pyran-4-yl)-7-methyl-5-oxo-5H-[1,3,4]thiadiazolo[3,2-a]pyrimidin-2-yl]pyrrolidine-2-carboxamide] was 7.17. The value for `CCc1cc(=O)n2nc(N3CCC[C@@H]3C(=O)NCc3ccccc3)sc2c1` [Example 699, (R)-N-benzyl-1-(7-ethyl-5-oxo-5H-[1,3,4]thiadiazolo[3,2-a]pyridin-2-yl)pyrrolidine-2-carboxamide] was 6.64; that for `CCc1c(Cl)c(=O)n2nc(N3CCC[C@@H]3C(=O)NCc3ccccc3)sc2c1Cl` [Example 701, (R)-N-benzyl-1-(6,8-dichloro-7-ethyl-5-oxo-5H-[1,3,4]thiadiazolo[3,2-a]pyridin-2-yl)pyrrolidine-2-carboxamide] was 7.30; that for `CCc1nc2ccc(N3CCC[C@@H]3C(=O)NCc3ccccc3)nc2c(=O)n1C` [Example 703, (R)-N-benzyl-1-(2-ethyl-3-methyl-4-oxo-3,4-dihydropyrido[3,2-d]pyrimidin-6-yl)pyrrolidine-2-carboxamide] was 6.96. In the case of `Cc1nc2ccc(N3CCC[C@@H]3C(=O)NCc3ccccc3)nc2c(=O)n1CC(F)(F)F` [Example 706, (R)-N-benzyl-1-[2-methyl-4-oxo-3-(2,2,2-trifluoroethyl)-3,4-dihydropyrido[3,2-d]pyrimidin-6-yl]pyrrolidine-2-carboxamide] it was 6.77; in that of `Cn1c(C(F)(F)F)nc2ccc(N3CCC[C@@H]3C(=O)NCc3ccccc3)nc2c1=O` [Example 707, (R)-N-benzyl-1-(3-methyl-4-oxo-2-trifluoromethyl-3,4-dihydropyrido[3,2-d]pyrimidin-6-yl)pyrrolidine-2-carboxamide], 6.17; in that of `O=C(NCc1ccccc1)[C@H]1CCCN1c1ccc2nc(C3(Cl)CC3)[nH]c(=O)c2n1` [Example 711, (R)-N-benzyl-1-[2-(1-chlorocyclopropyl)-4-oxo-3,4-dihydropyrido[3,2-d]pyrimidin-6-yl]pyrrolidine-2-carboxamide], 6.72.

Take `CC(C)c1nc2ccc(N3CCC[C@@H]3C(=O)NCc3ccccc3)nc2c(=O)[nH]1` [Example 712, (R)-N-benzyl-1-[4-oxo-2-(propan-2-yl)-3,4-dihydropyrido[3,2-d]pyrimidin-6-yl]pyrrolidine-2-carboxamide]: the pIC50 was 7.21.
